From patent publication EP4088745A1, “COMPOUND FOR THE DIAGNOSIS OF CANCER” (Eberhard Karls Universität Tübingen Medizinische Fakultät, priority 2021, dated 2022)

What was measured:
HCC1937 cells [1] = assay: In vitro radiotracer uptake; type: cell-based, Human
Description: Human breast carcinoma cells (HCC1937, ACC513) were purchased from the German Collection of Microorganisms and Cell Cultures (DSMZ GmbH, Braunschweig, Germany) and cultured in Roswell Park Memorial Institute (RPMI) 1640 medium supplemented with 16 % fetal calf serum (FCS), 100 U/ml penicillin and 100 µg/ml streptomycin at 37°C under humid 5 % CO2 atmosphere. Absence of mycoplasma infection was confirmed by PCR analysis in monthly intervals.
After 30 min of incubation at 37°C, the cells were washed by vacuum filtration of medium through the plate (2×100 µl followed by 2×200 µl), the filters were transferred into tubes using a commercial punch kit (MAMP09608, Merck) and measured in a gamma counter (Wizard 2, Perkin-Elmer, Waltham, MA, USA). Experiments were performed in triplicates and the uptake was quantified as percent of added activity.

[2] = Serum stability analysis in mouse serum; type: in vitro ADME; conditions: over a time course of 240 minutes; Fig 7 B
[3] = Serum stability analysis in human serum; type: in vitro ADME; conditions: over a time course of 240 minutes; Fig 7 B
HCC1937 xenograft = assay: PET imaging and ex vivo biodistribution in xenograft-bearing mice
Description: All animal experiments were performed according to the German animal welfare act and approved by the local authorities (Regierungsprasidium Tübingen, R3/18). Animals were housed in individually ventilated cages (IVCs, 5 mice per cage) with bedding and enrichment, and food and water was provided ad libitum. Animals were kept under isoflurane anesthetic (1.5 % in pure oxygen, 1.5 l/min) during the experiments. 1×10^7 cells in 1:1 ice-cold Matrigel (Thermo Scientific) / PBS were injected subcutaneously in the right shoulder area of 7 week-old female NOD.CB17-Prkdc^scid/J mice (n = 5). […] The mice underwent a second, 10 min static PET scan 2 h post-injection (p.i.). Mice were sacrificed by cervical dislocation, the collected organs were weighed and the tissue uptake was determined by gamma-counting (WIZARD2, PerkinElmer). PET image reconstruction and correlation with MR images was performed with Inveon Acquisition Workplace and Inveon Research Workplace, respectively, using a user-defined dynamic framing and an ordered subset expectation maximization (OSEM3D) algorithm. Regions of interest (ROIs) were drawn according to the acquired MR images and co-registered with the PET data to obtain time-activity curves (TACs).
Statistical analyses were performed with GraphPad Prism 9 using non-parametric t-tests and are represented as mean value ± standard deviation. Blood half-life was calculated using a two-phase decay fit. P-values < 0.05 were considered statistically significant according to the software (*: p < 0.05, **: p < 0.01, ***: p < 0.001, ****: p < 0.0001).

HCC1937 cells [4] = assay: Competition assay of radiotracer uptake; type: cell-based, Human; conditions: 1:2 serial dilution starting at 1µM; Fig. 11
Description: Human breast carcinoma cells (HCC1937, ACC513) were purchased from the German Collection of Microorganisms and Cell Cultures (DSMZ GmbH, Braunschweig, Germany) and cultured in Roswell Park Memorial Institute (RPMI) 1640 medium supplemented with 16 % fetal calf serum (FCS), 100 U/ml penicillin and 100 µg/ml streptomycin at 37°C under humid 5 % CO2 atmosphere. Absence of mycoplasma infection was confirmed by PCR analysis in monthly intervals. […] After 30 min of incubation at 37°C, the cells were washed by vacuum filtration of medium through the plate (2×100 µl followed by 2×200 µl), the filters were transferred into tubes using a commercial punch kit (MAMP09608, Merck) and measured in a gamma counter (Wizard 2, Perkin-Elmer, Waltham, MA, USA). Experiments were performed in triplicates and the uptake was quantified as percent of added activity.

Compound: Cn1ncnc1[C@H]1c2n[nH]c(=O)c3cc(F)cc(c23)N[C@@H]1c1ccc([18F])cc1 [[^18F] talazoparib, (8S,9R)-5-Fluoro-8-(4-^18fluorophenyl)-2,7,8,9-tetrahydro-9-(1-methyl-1H-1,2,4-triazol-5-yl)-3H-pyrido[4,3,2-de]phthalazin-3-one]
- uptake in HCC1937 cells (HCC1937 cells [1]; 30 min incubation at 37°C, Fig. 7A): high uptake
- uptake blocked by excess olaparib and talazoparib (HCC1937 cells [1]; blocking with olaparib or talazoparib, final concentration 25 µM): blockable to baseline
- Stability in mouse serum [2]: no radiometabolite was detected
- Stability in human serum [3]: no radiometabolite was detected
- absolute xenograft uptake (HCC1937 xenograft; biodistribution analysis 2.5 h p.i., n = 5): 3.7 ± 0.71 %ID/g
- calculated blood half-life (HCC1937 xenograft; blood TAC, two-phase decay fit): 3.3 min
- uptake in the brain tissue (HCC1937 xenograft; mouse, in vivo): very low uptake

Compound: Cn1ncnc1[C@H]1c2n[nH]c(=O)c3cc(F)cc(c23)N[C@@H]1c1ccc(F)cc1 [talazoparib, (8S,9R)-5-Fluoro-8-(4-fluorophenyl)-2,7,8,9-tetrahydro-9-(1-methyl-1H-1,2,4-triazol-5-yl)-3H-pyrido[4,3,2-de]phthalazin-3-one]
- blocking of the [^18F]talazoparib signal compared to olaparib (HCC1937 cells [4]): blocked the signal more effective
